Results: publication PMC12728982, “Multichiral Half-Sandwich Ru(II) and Os(II) Anticancer Complexes Containing a Glutathione Synthesis Inhibitor” (Organometallics, 2025)

Tests used:
[1] = system: HeLa cervical adenocarcinoma cells; test: Antiproliferative activity, SRB assay; format: cell-based, human
Procedure: The antiproliferative activity against human A549 lung, IGROV-1 ovarian, and HeLa cervical cancer cell lines and MRC5 normal lung fibroblasts was determined by the sulforhodamine B (SRB) assay. […] IGROV-1 is known to be cisplatin-sensitive and subject to hypermutation.
(§1) 2.8 Mammalian cell culture
(§2) The human ovarian cancer cell line, IGROV-1; the human cervical cancer cell line, HeLa; the human […]; and the human non-cancerous lung fibroblast cell line, MRC5 were cultured in DMEM supplemented with 10% FBS and 100 units/mL of penicillin and 100 µg/mL of streptomycin (1x pen/strep). All cell lines were incubated at 310 K with 5% CO2 and 95% humidity for routine maintenance and during drug treatment.
2.9 Sulforhodamine (SRB) cytotoxicity assay
Cells were seeded at 5 × 10^3 cells per well and incubated at 310 K for 48 h. Stock solutions (200 µM) of the complexes were prepared by dissolving the compound in 5% (v/v) DMSO followed by dilution with DMEM and serial dilutions with DMEM were prepared (0.1 µM-200 µM). The cells were exposed to the drug for 24 h. The drug was then removed, and cells were allowed to recover for 72 h, in drug-free media. Cell viability was then determined by the SRB colorimetric assay. The solubilised dye absorbance was analysed on a microplate reader (Thermo Scientific Multiskan FC with Scanit software 4.1) at 470 nm. Data were normalized using Microsoft Excel, and dose-response curves fitted using Origin 2016. The IC50 values

[2] = system: IGROV-1 human ovarian cancer cells; test: Cell cycle arrest by flow cytometry (PI); format: cell-based; details: IGROV-1, 100 μM, 24 h treatment, vs untreated
Procedure: 2 Effect of Os/Ru-LBSO and glycine complexes at 50 or 100 μM on the phases of the cell cycle of IGROV-1 human ovarian cancer cells compared with untreated (control) cells. Percentage of cells in G1 (black bar, cell growth), S (gray, DNA synthesis), G2/M, (white, growth/mitosis) as determined by flow cytometry after 24 h treatment with complexes. […] Standard deviations calculated for N = 3 *p-value <0.05 comparing to untreated sample.
as §1
as §2, with “treatment. […]” for “treatment.”
IGROV-1 cells (1 x 10^6 cells per well) were seeded in a 6-well plate and incubated for 24 h at 310 K. Stock solutions (200 µM) of the complexes were prepared by dissolving the compound in 5% (v/v) DMSO followed by dilution with DMEM and then diluted to desired concentrations. All complexes (50 µM and 100 µM) were added to the wells and incubated for 24 h. Cell pellets were collected using 0.25% trypsin and centrifuged (500 x g, 5 mins at 4 °C). Then washed in PBS and fixed with 100% ice-cold ethanol for 20 min on ice. The ethanol […]
was aspirated, cells washed in ice-cold PBS and then stained with 0.2 mg/mL RNase, 0.05 mg/mL propidium iodide (PI) in PBS for 25 min in the dark and on ice. Excess dye was removed, and cells were re-suspended in PBS. Samples were analysed by flow cytometry using the BD

IGROV-1 cells = test: Comet assay (DNA damage in single cells); format: cell-based, human; details: IGROV-1, 24 h; 100 μM for Cisplatin and Os-Gly
Procedure: Comet assays were carried out to determine whether the complexes caused DNA damage in single cells. […] Cisplatin DNA-adducts have been shown previously to inhibit DNA migration through electrophoresis presenting as less tail movement. […] Excess dye was removed, and cells were re-suspended in PBS. Samples were analysed by flow cytometry using the BD FACSMelodyTM Cell Sorter (R653880001) and data analysis on FlowJoTM v10 Software (BD Life Sciences).9 2.11 Apoptosis IGROV-1 cells (1 x 106) were seeded in a 6-well plate and incubated for 24 h at 310 K. Stock solutions (200 μM) of the complexes were prepared by dissolving the compound in 5% (v/v) DMSO followed by dilution with DMEM and then diluted to desired concentrations. All complexes (50 μM and 100 μM) were added to the wells and incubated for 24 h. Cell pellets were collected using 0.25% trypsin and centrifuged (500 x g, 5 mins at 277 K). Cell pellets were washed with PBS and then stained with the commercial Apoptosis Detection Kit-FITC Annexin V and PI (BioLegend; San Diego, USA), as per manufacturer's instructions. Briefly, a staining solution of FITC Annexin V (1 unit/100 μL) diluted 1 in 100 and 1 μg/mL PI was added to the cells (30 min, room temperature). Excess dye was removed, and cells were re-suspended in PBS. Samples were analysed by flow cytometry using the BD FACSMelodyTM Cell Sorter (R653880001) and data analysis on FlowJoTM v10 Software (BD Life Sciences).9 2.12 Comet assay IGROV-1 cells (8×10^5 cells per well) were seeded into 6-well plates and incubated for 24 h. Test compounds (50 μM and 100 μM) were added to the wells and incubated at 3 10 K for 24 h. Cells were enzymatically detached using trypsin and cell concentration adjusted to 2×10^4 cells /mL in ice-cold PBS. 0.4 mL of cell suspension was added to 1.2 mL of 1% low melting point agarose in H 2O, then immediately added to microscope slides pre -coated in 1% agarose. […] Twenty comet images per sample were taken by confocal microscopy and analysed by OpenComet. […]

[(p-cymene)Os(L-BSO)Cl] [Os-LBSO]
Activity toward HeLa cervical cancer cells ([1]; SRB): inactive
IC50 ([1]; SRB assay, 24 h treatment, 72 h recovery): > 200 µM
G1 arrest (percentage of cells in G1) [2]: significantly increased
Comet tails vs untreated cells (IGROV-1 cells): trend toward longer comet tails but this was not significant
